The nature of data set [1]: Stability in simulated gastric and intestinal fluid. Type of data set: in vitro ADME. The following applies: 6 hr, 1-20 μM; for % remaining, SGF: simulated gastric fluid with 3 mg/mL pepsin; for % remaining, SIF: simulated intestinal fluid with 3 mg/mL pancreatin. As for the experimental part: Test compounds were incubated at 1-20 μM in simulated gastric fluid (SGF; standard USP solution with 3 mg/mL pepsin) or simulated intestinal fluid (SIF; standard USP solution with 3 mg/mL pancreatin) for 3 hr or 6 hr. HPLC-UV or HPLC-MS were used to determine test compound levels using peak area %. Results (Table 5) were reported as the percentage of test compound remaining after incubation in a given condition relative to test compound present at t=0 in the same condition.

The test system of another data set is NaPi2b. Nature of the data set: Competition with phosphate: uptake assay repeated at 2.1 vs 0.1 mM phosphate. It is filed as cell-based. The note with it: potency for inhibition of NaPi2b at 2.1 vs 0.1 mM phosphate. From the text: In certain preferred embodiments, the phosphate transport inhibitors of the present invention are not competitive inhibitors with respect to phosphate of Na/phosphate co-transport. In certain other preferred embodiments, the phosphate transport inhibitors of the invention are non-competitive inhibitors. Non-competitive inhibitors maintain their degree of inhibition irrespective of the local phosphate concentration. This feature is an important aspect in providing an efficient blockade of intestinal transport in postprandial state, where the local concentration of dietary phosphate can attain concentration as high as 10 mM. It is believed that competitive inhibitors are too sensitive to local phosphate concentration and unable to block phosphate uptake following a high phosphorus meal. Various methods are available for determining whether a phosphate transport inhibitor is non-competitive or competitive. For example, a phosphate uptake assay can be performed and the IC50 values for a compound at different phosphate concentrations can be determined (e.g., “Enzyme kinetics”, I. Segel, 1975, John-Wiley & Sons, p. 123). IC50 values for non-competitive inhibitors will remain the same or similar with respect to the phosphate concentration, whereas IC50 values for competitive inhibitors will increase (i.e. lose potency) as phosphate concentration increases.
To ascertain if an inhibitor was competitive for binding with phosphate, the procedure was repeated, but raising the concentration of the substrate in the assay mixture from 0.1 to 2.1 mM phosphate.

For data set [2], the system named is Uptake of Phosphorus from the Intestine. Briefly: In vivo co-dosing in chow, urinary P output relative to P consumed. On the set-up: species or system Sprague-Dawley rats. The following applies: rats, compound in chow, nominal 100 mg/kg/day (mean actual 104-105 mg/kg/day), mean of 24-96 h, vs control. From the text: Male, 7-week-old Sprague-Dawley rats (Charles-River laboratories international, Hollister, Calif.) were allowed to acclimate for a minimum of 3 days. The experiment was initiated by switching animals to a synthetic diet (0.6% phosphorus and 0.6% calcium, Harlan Teklad TD.84122) for four days. After this time, the animals were placed into metabolic cages for daily monitoring of food and water consumption, as well as urine and fecal collections. Test compounds were incorporated into the powdered diet listed above containing 3% chocolate flavoring (w/w, BioSery #7345) at 1.3 mg test compound per gram of diet to achieve an average daily nominal dose of 100 mg/kg/day. The actual dose received by each animal was later determined by measuring prepared diet consumption and body weight. Urine samples were collected in three daily periods from 24-48, 48-72, and 72-96 hours of drug dosing. […] Phosphorous levels in the urine were determined by anion exchange chromatography using a Dionex ICS-3000 ion chromatography system. […] Elution of urine phosphate ions was monitored via conductivity detector and reported as ppm relative to a standard ion solution containing phosphate. Daily urinary P output relative to the P consumed in the prepared diet for each animal was calculated. […] The differences between the means of control and treated groups were evaluated by t tests. […]

The test system of data set [3] is Uptake of Phosphate from the Intestine. Briefly: In vivo bolus phosphorus challenge. On the set-up: species or system Sprague-Dawley rats. The following applies: rats on low-phosphorus diet, oral drug dose 30 (unit not given) 15 min before phosphate bolus, serum 30 min post bolus. As for the experimental part: By pretreating animals with a low phosphorus diet followed by the subsequent dosing of a phosphorus bolus, serum phosphorus levels were monitored after 30 minutes as a surrogate for intestinal phosphorus absorption. […] The in vivo bolus phosphorus challenge model used here mimics this model in rats.
Male, 7-week-old Sprague-Dawley rats (Charles-River laboratories international, Hollister, Calif.) were allowed to acclimatize for a minimum of 3 days before switching to a synthetic low-phosphorus diet (TD.85010, Harlan Teklad, Madison, Wis.) which contains 0.1% phosphorus and 0.6% calcium. At day 5, testing compounds or vehicle alone (as indicated) were orally administered at the indicated dose in a volume of 5 ml/kg, followed by a bolus gavage of monobasic sodium phosphate (1 mmol in 1 ml) 15 min after compound dosing. Serum was collected via retroorbital bleeding 30 min post phosphate bolus and phosphate levels were determined utilizing an ACE ALERA blood chemistry analyzer (Alfa Wassermann Diagnostic Technologies, West Caldwell, N.J.).
The extent of inhibition by test compounds on the elevation of serum phosphate levels in response to the bolus of phosphate is shown in Table 3 (data are expressed as % Inhibition, with 6-10 animals per data point). The differences between groups were evaluated by one-way analysis of variance with Dunnett's post hoc tests.

In the case of `O=C(O)CCOCCOCCOCCNC(=O)Cc1cccc(SCc2cccc(C(=O)Nc3ccc(N4CCCCC4)cc3C(=O)Nc3ccn(-c4cccc(C(F)(F)F)c4)n3)c2)c1` [Example 26, 2-Oxo-1-(3-((3-((4-(piperidin-1-yl)-2-((1-(3-(trifluoromethyl)phenyl)-1H-pyrazol-3-yl)carbamoyl)phenyl)carbamoyl)benzyl)thio)phenyl)-6,9,12-trioxa-3-azapentadecan-15-oic acid], in data set [1], the “% remaining, SGF” value was 91% and the “% remaining, SIF” value is recorded as 95%. Besides, the “Competitive with respect to Pi?” value in the data set on NaPi2b is recorded as “No”.
As for `CN(CCN1CCOCC1)C(=O)c1cccc(C(=O)Nc2ccc(Cl)cc2C(=O)Nc2ccn(-c3cccc(C(F)(F)F)c3)n2)c1` [Example 14, N1-(4-Chloro-2-((1-(3-(trifluoromethyl)phenyl)-1H-pyrazol-3-yl)carbamoyl)phenyl)-N3-methyl-N3-(2-morpholinoethyl)isophthalamide 2,2,2-trifluoroacetate], in data set [2], the “Mean % inhibition Urine Pout/P consumed” value was determined as 12%. Besides, in data set [1], the “% remaining, SGF” value was 93% and the “% remaining, SIF” value was 72%.
For `CN(CCN1CCOCC1)C(=O)c1cccc(C(=O)Nc2ccc(N3CCCCC3)cc2C(=O)Nc2ccn(-c3cccc(C(F)(F)F)c3)n2)c1` [Example 11, N1-Methyl-N1-(2-morpholinoethyl)-N3-(4-(piperidin-1-yl)-2-((1-(3-(trifluoromethyl)phenyl)-1H-pyrazol-3-yl)carbamoyl)phenyl)isophthalamide], in data set [3], the “% Inhibition of Serum P elevation” value worked out at 30.0%. Also, the “Competitive with respect to Pi?” value in the data set with NaPi2b is on record as “No”.
